Source: patent publication US9598396B2, “Tetrahydrophenanthridinones and tetrahydrocyclopentaquinolinones as PARP and tubulin polymerization inhibitors” (Janssen Pharmaceutica NV, priority 2008, dated 2017)

Assays:
Human PARP-1 enzyme = Human PARP-1 enzyme (Homo sapiens (Human), UniProt P09874); assay: In vitro Scintillation Proximity Assay (SPA) for PARP-1 inhibitory activity; assay type: biochemical; settings: nicked DNA activated PARP-1, [3H]-NAD+, biotinylated histones
Procedure: C.1.In Vitro Scintillation Proximity Assay (SPA) for PARP-1 Inhibitory Activity
Compounds of the present invention were tested in an in vitro assay based on SPA technology (proprietary to GE healthcare).
In principle, the assay relies upon the well established SPA technology for the detection of poly(ADP-ribosyl)ation of biotinylated target proteins, i.e histones. This ribosylation is induced using nicked DNA activated PARP-1 enzyme and [^3H]-nicotinamide adenine dinucleotide ([^3H]-NAD^+) as ADP-ribosyl donor.
Histones (type II-A, supplier: Sigma) were biotinylated using the biotinylation kit of Amersham and stored aliquoted at −20° C. A stock solution of 100 mg/ml SPA poly(vinyl toluene) (PVT) beads (supplier: Amersham) was made in PBS. A stock solution of 61.6 nM […] was made by adding [^3H]-NAD^+ (0.1 mCi/ml, supplier: Perkin Elmer) to incubation buffer (50 mM Tris/HCl, pH 8; 0.2 mM DTT; 4 mM MgCl2). A solution of 4 mM NAD^+ (supplier: Sigma) was made. Human PARP-1 enzyme was obtained from Trevigen. Biotinylated histones and PVT-SPA beads were mixed and pre-incubated for 30 minutes at room temperature. PARP-1 enzyme (concentration was lot dependent) was mixed with the nicked DNA and the mixture was pre-incubated for 30 minutes at 4° C. Equal parts of this histones/PVT-SPA beads solution and PARP-1 enzyme/DNA solution were mixed and 75 μl of this mixture together with 1 μl of compound in DMSO and 25 μl of [^3H]-NAD^+was added per well into a 96-well microtiterplate. The final concentrations in the incubation mixture were 2 μg/ml for the biotinylated histones, 2 mg/ml for the PVT-SPA beads, 0.25 μg/ml for the nicked DNA and between 0.1-0.2 μg/ml for the PARP-1 enzyme. After incubation of the mixture for 20 minutes at room temperature, the reaction was terminated by adding 100 μl of 4 mM NAD^+ in water (final concentration 2 mM) and plates were mixed. The beads were sedimented by centrifugation (10 min, 800 rpm) and plates transferred to a TopCountNXT™ (Packard) for scintillation counting, values were expressed as counts per minute (cpm). For each experiment, controls (containing PARP-1 enzyme and DMSO without compound), a blank incubation (containing DMSO but no PARP-1 enzyme, no DNA or compound) and samples (containing PARP-1 enzyme, DNA and compound dissolved in DMSO) were run in parallel. All compounds tested were dissolved and eventually further diluted in DMSO. A dose-response curve was made wherein the compounds were tested at concentrations between 10^−5M and 3×10^−9M. In each test, the blank value was subtracted from both the control and the sample values. The control sample represented maximal PARP-1 enzyme activity. For each sample, the amount of cpm was expressed as a percentage of the mean cpm value of the controls. […] Herein the effects of test compounds are expressed as pIC50 (the negative log value of the IC50-value). As a reference compound, 4-amino-1,8-naphthalimide was included to validate the SPA assay.

[1] = tested on: Human colon carcinoma HCT116 cells; assay: Detection of antiproliferative activity (Alamar Blue assay); assay type: cell-based; settings: HCT-116, 96 h, 4-day incubation, read-out: Cellular assay HCT116 pIC50 (converted)
Procedure: Example C.4 Detection of Antiproliferative Activity
Human colon carcinoma HCT116 cells obtained from the ATCC were cultured in McCoy's 5A medium supplemented with 2 mM L-Glutamine, 50 μg/ml gentamicin and 10% heat inactivated fetal calf serum.
Reagents used in the Alamar Blue Assay
Resazurin was purchased from Aldrich (Prod. No. 199303). Potassium ferrocyanide, potassium ferricyanide, KH2PO4 and K2HPO4 were purchased from Sigma (Prod. Nos. P9387, P8131, P5655 and P8281, respectively).
Potassium Phosphate Buffer 0.1 M (PPB) was made as follows: 2.72 gram KH2PO4 and 13.86 gram K2HPO4 were dissolved in 500 ml milli-Q H2O, the pH was adjusted to pH 7.4 and the volume was brought to 1 liter with milli-Q H2O; the buffer was filter sterilised and stored at room temperature. Resazurin stock solution (PPB-A) was prepared fresh by dissolving 45 mg resazurin in 15 ml PBS. 30 mM potassium ferricyanide (PPB-B) was prepared by dissolving 0.987 gram potassium ferricyanide in 100 ml PPB. 30 mM potassium ferrocyanide (PPB-C) was prepared by dissolving 1.266 gram potassium ferrocyanide in 100 ml PPB.
Mixture of PPB-A, PPB-B and PPB-C was prepared by mixing equal volumes of the respective solutions. Resazurin work solution (herein termed “Alamar Blue” solution) was prepared by diluting said mixture 20× (vol/vol) in PPB and filter sterilising; the Alamar Blue solution could be kept at 4° C. for a maximum of 2 weeks.
Procedure of the Alamar Blue Assay
For experiments in 384 wells plates the cells were seeded at a density of 4.5×10^3 cells/ml in Falcon 384-well culture plates (Life Technologies, Merelbeke, Belgium), black with clear bottom, in 45 μl culture medium. Cells were allowed to adhere to plastic for 24 hours. The tested compound was pre-diluted (1/50 in culture medium) and 5 μl pre-diluted compound was added to the wells. Following 4-day incubation, 10 μl of the Alamar Blue solution was added to each well and the cells were further incubated for 4 hours (HCT116) or 24 hours (PC-3) at 37° C. The fluorescence intensity was measured for each well on a Fluorescence plate reader (Fluorskan, Labsystems, 540 nm excitation and 590 nm emission)
The antiproliferative activity was calculated as percentage of remaining viable cells in treated versus control (untreated cells) conditions. Within an experiment, the result for each experimental condition is the mean of 3 replicate wells. When appropriate, the experiments were repeated to establish full concentration-response curves. […] Herein the effects of tested compounds are expressed as pIC50 (the negative log value of the IC50 value) (see Table 3).

TANK-2 enzyme = TANK-2 enzyme (Homo sapiens (Human), UniProt Q9H2K2); assay: In vitro Scintillation Proximity Assay (SPA) for TANK-2 inhibitory activity; assay type: biochemical; settings: auto-poly(ADP-ribosyl)ation, [3H]-NAD+, Ni flash plates (96 or 384 well)
Chain of TANK-2 enzyme (Q9H2K2 whole entry): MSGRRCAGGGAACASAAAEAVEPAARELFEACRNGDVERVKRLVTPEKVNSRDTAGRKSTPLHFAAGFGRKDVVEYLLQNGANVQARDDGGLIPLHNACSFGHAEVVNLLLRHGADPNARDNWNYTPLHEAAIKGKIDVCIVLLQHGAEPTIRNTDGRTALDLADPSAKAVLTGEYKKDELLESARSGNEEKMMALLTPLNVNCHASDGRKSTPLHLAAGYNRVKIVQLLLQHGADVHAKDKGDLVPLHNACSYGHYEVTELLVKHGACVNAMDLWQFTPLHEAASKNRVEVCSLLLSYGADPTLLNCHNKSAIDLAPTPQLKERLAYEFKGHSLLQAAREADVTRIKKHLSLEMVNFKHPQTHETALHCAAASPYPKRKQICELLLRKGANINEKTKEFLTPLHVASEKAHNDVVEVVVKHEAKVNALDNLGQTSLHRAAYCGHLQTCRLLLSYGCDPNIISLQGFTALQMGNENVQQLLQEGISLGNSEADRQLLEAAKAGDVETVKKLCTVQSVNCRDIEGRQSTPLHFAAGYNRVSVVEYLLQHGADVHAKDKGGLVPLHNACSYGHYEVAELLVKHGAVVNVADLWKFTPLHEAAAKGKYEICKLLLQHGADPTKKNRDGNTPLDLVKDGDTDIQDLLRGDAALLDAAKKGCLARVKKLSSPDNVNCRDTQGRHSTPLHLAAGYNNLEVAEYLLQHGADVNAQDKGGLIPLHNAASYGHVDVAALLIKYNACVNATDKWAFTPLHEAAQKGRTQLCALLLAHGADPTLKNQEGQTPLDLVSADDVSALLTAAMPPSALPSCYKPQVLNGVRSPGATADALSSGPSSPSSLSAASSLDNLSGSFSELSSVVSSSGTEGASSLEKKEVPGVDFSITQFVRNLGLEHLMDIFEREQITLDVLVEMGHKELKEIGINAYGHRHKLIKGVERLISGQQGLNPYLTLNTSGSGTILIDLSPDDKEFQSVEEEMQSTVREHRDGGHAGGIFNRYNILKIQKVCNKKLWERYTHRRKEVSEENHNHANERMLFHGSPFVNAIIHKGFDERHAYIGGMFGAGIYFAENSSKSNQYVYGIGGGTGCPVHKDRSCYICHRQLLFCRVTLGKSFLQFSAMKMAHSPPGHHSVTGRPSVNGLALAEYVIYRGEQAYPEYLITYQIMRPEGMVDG
Procedure: C.2.In Vitro Scintillation Proximity Assay (SPA) for TANK-2 Inhibitory Activity
Compounds of the present invention were tested in an in vitro assay based on SPA technology with Ni Flash plates (96 or 384 well).
In principle, the assay relies upon SPA technology for the detection of auto-poly(ADP-ribosyl)ation of TANK-2 protein using [^3H]-nicotinamide adenine dinucleotide ([^3H]-NAD^+) as ADP-ribosyl donor.
A stock solution of 100 nM [^3H]-NAD^+/NAD (0.1 mCi/ml, supplier: Perkin Elmer) and 25 μM NAD (Sigma) was made in assay buffer (60 mM Tris/HCl, pH 7.4; 0.9 mM DTT; 6 mM MgCl2). The TANK-2 enzyme was produced as described in EP1238063. 60 μl of assay buffer, together with 1 μl of compound in DMSO, 20 μl of [^3H]-NAD^+/NAD and 20 μl of TANK-2 enzyme (final concentration 8 μg/ml) was added per well into a 96-well Ni-coated flash plate (Perkin Elmer). After incubation of the mixture for 120 minutes at room temperature, the reaction was terminated by adding 60 μl of stopsolution (42.6 mg NAD in 6 ml H2O). The plates were covered with a plate sealer and placed in a TopCountNXT™ (Packard) for scintillation counting. Values were expressed as counts per minute (cpm). For each experiment, controls (containing TANK-2 enzyme and DMSO without compound), a blank incubation (containing DMSO but no TANK-2 enzyme or compound) and samples (containing TANK-2 enzyme and compound dissolved in DMSO) were run in parallel. All compounds tested were dissolved and eventually further diluted in DMSO. In first instance, compounds were tested at a concentration of 10^−5M. […] In each test, the blank value was subtracted from both the control and the sample values. The control sample represented maximal TANK-2 enzyme activity. For each sample, the amount of cpm was expressed as a percentage of the mean cpm value of the controls. […] Herein the effects of test compounds are expressed as pIC50 (the negative log value of the IC50-value). As reference compounds, 3-aminobenzamide and 4-amino-1,8-naphtalimide were included to validate the SPA assay. Herein the assay was described using 96-well plates. In the assay using 384-well plates the same final concentrations were used and volumes were adapted.

Chain of Human PARP-1 enzyme (P09874 whole entry): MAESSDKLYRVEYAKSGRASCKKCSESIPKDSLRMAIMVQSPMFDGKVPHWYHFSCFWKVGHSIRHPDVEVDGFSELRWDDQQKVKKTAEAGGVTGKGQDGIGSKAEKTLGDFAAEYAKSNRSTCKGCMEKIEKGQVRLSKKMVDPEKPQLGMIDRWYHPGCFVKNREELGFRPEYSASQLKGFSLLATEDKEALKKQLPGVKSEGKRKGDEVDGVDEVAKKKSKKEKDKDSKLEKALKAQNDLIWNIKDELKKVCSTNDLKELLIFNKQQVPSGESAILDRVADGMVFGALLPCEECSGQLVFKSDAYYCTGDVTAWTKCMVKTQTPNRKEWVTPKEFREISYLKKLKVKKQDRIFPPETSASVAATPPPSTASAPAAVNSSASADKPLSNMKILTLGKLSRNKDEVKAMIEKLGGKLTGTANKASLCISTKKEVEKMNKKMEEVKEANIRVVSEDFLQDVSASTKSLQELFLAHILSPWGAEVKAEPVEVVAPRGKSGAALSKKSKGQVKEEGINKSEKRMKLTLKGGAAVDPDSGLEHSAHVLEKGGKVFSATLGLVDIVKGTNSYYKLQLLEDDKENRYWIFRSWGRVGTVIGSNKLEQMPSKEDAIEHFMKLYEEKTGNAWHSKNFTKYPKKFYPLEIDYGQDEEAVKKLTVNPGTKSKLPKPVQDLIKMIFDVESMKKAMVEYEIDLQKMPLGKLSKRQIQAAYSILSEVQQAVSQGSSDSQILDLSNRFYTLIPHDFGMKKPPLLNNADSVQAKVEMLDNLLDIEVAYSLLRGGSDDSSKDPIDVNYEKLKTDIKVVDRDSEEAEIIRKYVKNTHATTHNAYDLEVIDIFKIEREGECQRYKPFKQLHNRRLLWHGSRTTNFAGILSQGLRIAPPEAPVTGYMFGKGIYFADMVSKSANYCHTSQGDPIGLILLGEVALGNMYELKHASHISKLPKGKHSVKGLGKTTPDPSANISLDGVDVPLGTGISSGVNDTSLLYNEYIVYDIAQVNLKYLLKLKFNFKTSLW

Structure (SMILES) | in vitro SPA assay PARP-1 pIC50 (Human PARP-1 enzyme) | IC50 [1] [µM] | in vitro SPA assay TANK-2 pIC50 (TANK-2 enzyme) | IC50 (Human PARP-1 enzyme; read-out: in vitro SPA assay PARP-1 pIC50 (converted)) [µM] | IC50 (TANK-2 enzyme; read-out: in vitro SPA assay TANK-2 pIC50 (converted)) [µM]
Cn1c(CC(C)(C#N)c2ccc3c4c(c(=O)[nH]c3c2)CCCC4)nc2ccccc21 (stereo not drawn) [Co. No. 13] | 7.38 | 0.269 | 7.37 | – | –
C[C@](C#N)(Cc1ccccc1)c1ccc2c3c(c(=O)[nH]c2c1)CCCC3 (single isomer, unassigned) [Co. No. 3] | 7.26 | 0.158 | 7.48 | – | –
COC(=O)c1cccc(CC(C)(C#N)c2ccc3c4c(c(=O)[nH]c3c2)CCCC4)c1 (stereo not drawn) [Co. No. 14] | – | 0.105 | – | 0.0977 | 0.0631
CC(C#N)(Cc1cccc(CO)c1)c1ccc2c3c(c(=O)[nH]c2c1)CCCC3 (stereo not drawn) [Co. No. 15] | 7.48 | 0.229 | 7.39 | – | –
CN(Cc1ccc(C#N)cc1)CC(C)(C#N)c1ccc2c3c(c(=O)[nH]c2c1)CCCC3 (stereo not drawn) [Co. No. 19] | – | 0.589 | 7.19 | – | –
CC(C#N)(Cc1cccc(OC(F)(F)F)c1)c1ccc2c3c(c(=O)[nH]c2c1)CCCC3 (stereo not drawn) [Co. No. 10] | 6.66 | 0.186 | 7.23 | – | –
C[C@@](C#N)(Cc1cccc(F)c1)c1ccc2c3c(c(=O)[nH]c2c1)CCCC3 (single isomer, unassigned) [Co. No. 5a] | 7.80 | > 10 | 7.40 | – | –
CN(CC(C)(C#N)c1ccc2c3c(c(=O)[nH]c2c1)CCCC3)C(=O)c1ccccc1 (stereo not drawn) [Co. No. 18] | – | > 10 | – | – | –
CC(C#N)(Cc1cc(Cl)nc(Cl)c1)c1ccc2c3c(c(=O)[nH]c2c1)CCCC3 (stereo not drawn) [Co. No. 9] | 7.20 | 0.158 | 6.35 | – | –
COc1cccc(CC(C)(C#N)c2ccc3c4c(c(=O)[nH]c3c2)CCCC4)c1 (stereo not drawn) [Co. No. 11] | 7.06 | 0.155 | 7.45 | – | –
C[C@](C#N)(Cc1cccc(F)c1)c1ccc2c3c(c(=O)[nH]c2c1)CCCC3 (single isomer, unassigned) [Co. No. 5b] | 7.44 | 0.0977 | 7.47 | – | –
CC(C#N)(Cc1cccc(CN)c1)c1ccc2c3c(c(=O)[nH]c2c1)CCCC3 (stereo not drawn) [Co. No. 16] | 6.10 | 0.417 | 7.42 | – | –
Cn1nc(CC(C)(C#N)c2ccc3c4c(c(=O)[nH]c3c2)CCCC4)c2ccccc21 (stereo not drawn) [Co. No. 12] | 7.34 | 0.178 | 7.37 | – | –
C[C@@](C#N)(Cc1ccccc1)c1ccc2c3c(c(=O)[nH]c2c1)CCCC3 (single isomer, unassigned) [Co. No. 2] | 7.33 | > 10 | 7.43 | – | –
